# Experimental data: PubChem BioAssay AID330 (DTP/NCI, 2004)
# “And” between values parts separate entries of the source, which are not always exact repeats. Equal values may be shown once. Toxic doses and inconclusive results are not listed. Peptide text beside a SMILES is read from it.
# System: P388 leukemia ip, CD2F1 mice, survival T/C
# Test: NCI In Vivo Anticancer Drug Screen. Data for tumor model P388 Leukemia (intraperitoneal) in CD2F1 (CDF1) mice
# Conditions: endpoint: median survival time, higher = longer survival
# Procedure, shortened: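 Mice carrying the transplanted tumor received test compound or vehicle. Survival was recorded in each group, and the value is the treated-group measurement divided by that of the vehicle-treated control group.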
# [1] = dose: 60.0 mg/kg/injection, schedule: Q01DX005 (ip), vehicle: saline with Tween-80
# [2] = dose: 120.0 mg/kg/injection, schedule: Q01DX005 (ip), vehicle: saline with Tween-80
# [3] = dose: 50.0 mg/kg/injection, schedule: Q01DX009 (ip), vehicle: saline with Tween-80
# [4] = dose: 100.0 mg/kg/injection, schedule: Q01DX009 (ip), vehicle: saline with Tween-80
# [5] = dose: 200.0 mg/kg/injection, schedule: Q01DX009 (ip), vehicle: saline with Tween-80
# [6] = dose: 25.0 mg/kg/injection, schedule: Q01DX009 (ip), vehicle: saline with Tween-80
# [7] = dose: 100.0 mg/kg/injection, schedule: Q04DX003 (ip), vehicle: saline with Tween-80
# [8] = dose: 200.0 mg/kg/injection, schedule: Q04DX003 (ip), vehicle: saline with Tween-80
# [9] = dose: 400.0 mg/kg/injection, schedule: Q04DX003 (ip), vehicle: saline with Tween-80
# [10] = dose: 12.5 mg/kg/injection, schedule: Q01DX009 (ip), vehicle: saline with Tween-80
# [11] = dose: 50.0 mg/kg/injection, schedule: Q01DX005 (ip), vehicle: Klucel (hydroxypropylcellulose) (HPC)
# [12] = dose: 100.0 mg/kg/injection, schedule: Q01DX005 (ip), vehicle: Klucel (hydroxypropylcellulose) (HPC)
# [13] = dose: 200.0 mg/kg/injection, schedule: Q01DX005 (ip), vehicle: Klucel (hydroxypropylcellulose) (HPC)
# [14] = dose: 50.0 mg/kg/injection, schedule: Q01DX009 (ip), vehicle: Klucel (hydroxypropylcellulose) (HPC)
# [15] = dose: 100.0 mg/kg/injection, schedule: Q01DX009 (ip), vehicle: Klucel (hydroxypropylcellulose) (HPC)
# [16] = dose: 200.0 mg/kg/injection, schedule: Q01DX009 (ip), vehicle: Klucel (hydroxypropylcellulose) (HPC)
# [17] = dose: 50.0 mg/kg/injection, schedule: Q01DX009 (ip), vehicle: saline
# [18] = dose: 100.0 mg/kg/injection, schedule: Q01DX009 (ip), vehicle: saline
# [19] = dose: 200.0 mg/kg/injection, schedule: Q01DX009 (ip), vehicle: saline
smiles,measurement,setting,value
CCOC(=O)C(C#N)C(=N)C1C(=O)OC2CCCCC21 (configuration not stated),T/C,[1],98 % of control
same,T/C,[2],100 % of control
same,T/C,"dose: 240.0 mg/kg/injection, schedule: Q01DX005 (ip), vehicle: saline with Tween-80",92 % of control
Nc1nc(Sc2ccccn2)ccc1[N+](=O)[O-],T/C,[3],91 % of control
same,T/C,[4],91 % of control
same,T/C,[5],102 % of control
COc1cc(NN=C(C#N)C#N)c(OC)cc1Cl,T/C,"dose: 6.25 mg/kg/injection, schedule: Q01DX005 (ip), vehicle: Klucel (hydroxypropylcellulose) (HPC)",102 % of control
same,T/C,"dose: 12.5 mg/kg/injection, schedule: Q01DX005 (ip), vehicle: Klucel (hydroxypropylcellulose) (HPC)",107 % of control
same,T/C,"dose: 25.0 mg/kg/injection, schedule: Q01DX005 (ip), vehicle: Klucel (hydroxypropylcellulose) (HPC)",107 % of control
NC(N)=NCCCC(N)C(=O)N1CCCC1C(=O)O (stereo not drawn) (H-Arg-Pro-OH; configuration not given here),T/C,"dose: 50.0 mg/kg/injection, schedule: Q01DX005 (ip), vehicle: saline",101 % of control
same,T/C,"dose: 100.0 mg/kg/injection, schedule: Q01DX005 (ip), vehicle: saline",97 % of control
same,T/C,"dose: 200.0 mg/kg/injection, schedule: Q01DX005 (ip), vehicle: saline",100 % of control
O=Cc1c2cnc(c1O)CSCc1ccc(cc1)CSC2,T/C,"dose: 50.0 mg/kg/injection, schedule: Q01DX005 (ip), vehicle: saline with Tween-80",104 % of control
same,T/C,"dose: 100.0 mg/kg/injection, schedule: Q01DX005 (ip), vehicle: saline with Tween-80",110 % of control
same,T/C,"dose: 200.0 mg/kg/injection, schedule: Q01DX005 (ip), vehicle: saline with Tween-80",113 % of control
CCCCN=C(N)N/N=C(\C)c1ccc(-c2ccccc2)cc1,T/C,"dose: 1.25 mg/kg/injection, schedule: Q04DX002 (ip), vehicle: saline with Tween-80",102 % of control
same,T/C,"dose: 2.5 mg/kg/injection, schedule: Q04DX002 (ip), vehicle: saline with Tween-80",104 % of control
same,T/C,"dose: 5.0 mg/kg/injection, schedule: Q04DX002 (ip), vehicle: saline with Tween-80",104 % of control
CCOC(=O)c1cnc2cc3c(cc2c1Nc1ccc2c(c1)OCO2)OCO3,T/C,"dose: 60.0 mg/kg/injection, schedule: Q01DX005 (ip), vehicle: Klucel + Tween-80",108 % of control
same,T/C,"dose: 120.0 mg/kg/injection, schedule: Q01DX005 (ip), vehicle: Klucel + Tween-80",109 % of control
CCC(=O)Sc1ccccc1C(=O)Nc1ccc(Cl)cc1,T/C,[4],121 % of control and 86 % of control
same,T/C,[5],97 % of control
N=Cc1cc([N+](=O)[O-])ccc1O,T/C,[1],105 % of control
same,T/C,[2],104 % of control
CC1=CC(C)(C)NC(=S)N1c1cccc2ccccc12,T/C,[6],116 % of control
same,T/C,[3],103 % of control
same,T/C,[4],110 % of control
same,T/C,[5],113 % of control
CC1=C2C(=C[C@@](C)(CO)[C@@H]2O)C(=O)[C@](C)(O)C12CC2,T/C,"dose: 0.05 mg/kg/injection, schedule: Q01DX010 (ip), vehicle: saline",109 % of control
same,T/C,"dose: 0.1 mg/kg/injection, schedule: Q01DX010 (ip), vehicle: saline",118 % of control
same,T/C,"dose: 0.8 mg/kg/injection, schedule: Q01DX010 (ip), vehicle: saline",95 % of control
O=c1oc2cc(O)ccc2c2oc3cc(O)ccc3c12,T/C,"dose: 50.0 mg/kg/injection, schedule: Q04DX003 (ip), vehicle: saline with Tween-80",100 % of control
same,T/C,[7],94 % of control
same,T/C,[8],93 % of control
same,T/C,[9],93 % of control
CCn1c2c(c3ccccc31)CCSC2(C)CCN(C)C (configuration not stated),T/C,[6],105 % of control
same,T/C,[3],96 % of control
same,T/C,[4],117 % of control
CCNCc1c(C)nc2ccc(N(C)C)cc2c1Cl,T/C,[10],91 % of control
same,T/C,[6],104 % of control
same,T/C,[3],88 % of control
O=C1C=C\C(=C/C=C\C=C2/C=CC(=O)O2)O1,T/C,[11],93 % of control
same,T/C,[12],100 % of control
same,T/C,[13],96 % of control
CC12C=CC(C)(C3C(=O)NC(=O)C31)C1C3C(=O)NC(=O)C3C12 (configuration not stated),T/C,"dose: 25.0 mg/kg/injection, schedule: Q01DX009 (ip), vehicle: Klucel (hydroxypropylcellulose) (HPC)",106 % of control
same,T/C,[14],109 % of control
same,T/C,[15],106 % of control
same,T/C,[16],109 % of control
Oc1cccc(NCNC2Nc3ccccc3N2)c1,T/C,"dose: 15.0 mg/kg/injection, schedule: Q01DX005 (ip), vehicle: saline with Tween-80",94 % of control
same,T/C,"dose: 30.0 mg/kg/injection, schedule: Q01DX005 (ip), vehicle: saline with Tween-80",95 % of control
O=C(Nc1ccc(Cl)c(Cl)c1)Nc1ccc(Cl)c(Cl)c1 (tested in a mixture with another compound),T/C,"dose: 3.13 mg/kg/injection, schedule: Q01DX009 (ip), vehicle: saline with Tween-80",97 % of control
same,T/C,"dose: 6.25 mg/kg/injection, schedule: Q01DX009 (ip), vehicle: saline with Tween-80",88 % of control
same,T/C,[10],94 % of control
CC=C1CN(C)C2Cc3c([nH]c4ccccc34)C(=O)CC1C2C(=O)OC (configuration not stated),T/C,"dose: 7.5 mg/kg/injection, schedule: Q01DX009 (ip), vehicle: saline + alcohol",107 % of control
same,T/C,"dose: 15.0 mg/kg/injection, schedule: Q01DX009 (ip), vehicle: saline + alcohol",116 % of control
same,T/C,"dose: 30.0 mg/kg/injection, schedule: Q01DX009 (ip), vehicle: saline + alcohol",106 % of control
CN(N=O)C(=O)NCCCCCNC(=O)N(C)N=O,T/C,[7],100 % of control
same,T/C,[8],104 % of control
same,T/C,"dose: 400.0 mg/kg/injection, schedule: Q01DX009 (ip), vehicle: saline with Tween-80",150 % of control and 163 % of control
same,T/C,[9],104 % of control
same,T/C,"dose: 600.0 mg/kg/injection, schedule: Q01DX009 (ip), vehicle: saline with Tween-80",163 % of control
C=C(C)n1c(=O)[nH]c2ccccc21,T/C,[17],87 % of control
same,T/C,[18],87 % of control
same,T/C,[19],89 % of control
CSC(=S)N/N=C\C(O)C(O)C(O)C(O)CO (configuration not stated),T/C,"dose: 6.25 mg/kg/injection, schedule: Q04DX003 (ip), vehicle: saline",104 % of control
same,T/C,"dose: 12.5 mg/kg/injection, schedule: Q04DX003 (ip), vehicle: saline",109 % of control
same,T/C,"dose: 25.0 mg/kg/injection, schedule: Q04DX003 (ip), vehicle: saline",102 % of control
CC(C)(C)C(=O)Oc1ccc[nH]c1=O,T/C,"dose: 25.0 mg/kg/injection, schedule: Q01DX009 (ip), vehicle: saline",100 % of control and 110 % of control
same,T/C,[17],106 % of control and 116 % of control
same,T/C,[18],100 % of control and 116 % of control
same,T/C,[19],121 % of control and 94 % of control
same,T/C,"dose: 400.0 mg/kg/injection, schedule: Q01DX009 (ip), vehicle: saline",106 % of control and 109 % of control
Nc1cc2c(c[n+](CCCCCCCCCBr)c3ccccc23)c2ccccc12,T/C,"dose: 1.56 mg/kg/injection, schedule: Q04DX003 (ip), vehicle: other",155 % of control
same,T/C,"dose: 3.13 mg/kg/injection, schedule: Q04DX003 (ip), vehicle: other",155 % of control
same,T/C,"dose: 6.25 mg/kg/injection, schedule: Q04DX003 (ip), vehicle: other",150 % of control
C#CC(C)OCC(C)OC(C)=O (configuration not stated),T/C,"dose: 150.0 mg/kg/injection, schedule: Q01DX009 (ip), vehicle: saline with Tween-80",88 % of control
same,T/C,"dose: 225.0 mg/kg/injection, schedule: Q01DX009 (ip), vehicle: saline with Tween-80",88 % of control
O=C1NC(Cc2c[nH]c3ccccc23)C(=O)N2CCCC12 (configuration not stated),T/C,[11],100 % of control
same,T/C,[12],104 % of control
same,T/C,[13],97 % of control
CC1C=CCC(C)(C#N)C1 (configuration not stated),T/C,[14],103 % of control
same,T/C,[15],100 % of control
same,T/C,[16],108 % of control
CCOc1cc2c(cc1C(CC)c1ccc(OC)cc1)OCO2 (configuration not stated),T/C,[11],104 % of control
same,T/C,[12],104 % of control
same,T/C,[13],99 % of control
CC1CC2C(=S)NC(=O)C(c3ccccc3)=C2O1 (configuration not stated),T/C,[14],107 % of control
same,T/C,[15],103 % of control
same,T/C,[16],100 % of control
CC1=CC(=O)C(O)=C/C1=C\C=C\c1ccccc1,T/C,"dose: 2.5 mg/kg/injection, schedule: Q01DX009 (ip), vehicle: saline with Tween-80",110 % of control
same,T/C,"dose: 5.0 mg/kg/injection, schedule: Q01DX009 (ip), vehicle: saline with Tween-80",104 % of control
same,T/C,"dose: 10.0 mg/kg/injection, schedule: Q01DX009 (ip), vehicle: saline with Tween-80",103 % of control
